EC50 and wound healing data for two compounds are collected here from patent US20260000736A1, “PURIFIED LACTOFERRIN COMPOSITIONS AND METHODS OF USE” (Lactea Therapeutics LLC, priority 2023, published 2026).

The test system of one test is SARS-CoV-2. The test is described as follows: SARS-CoV-2 Cytopathic Effect (CPE) reduction assay in Vero E6 cells. It counts as cell-based. As to conditions: Severe acute respiratory syndrome coronavirus 2, Vero C1008, 72 h.
The test system of test [1] is pigs with dermatome wounds. Briefly: Pig dermatome wound healing model. The following applies: dermatome wounds 40×40 mm at a depth of 0.76 mm, topical treatment. It counts as in vivo.
Experimental: In a first assessment in a pig model setting, using a dermatome, six wounds were made on each pig with three on the left side and three on the right side of each pig covering a surface area of 40×40 mm at a depth of 0.76 mm. […] For each pig, the wounds on the left of the animal were treated while the wounds on the right wide were left as untreated controls. […] Standard of care was advised on by veterinarians with experience in dealing with wound management in a farm setting.

The structures appear in SMILES notation. Where a SMILES comes first, the peptide text is derived from it. Bridges are numbered along the chain shown (N, C = ends). [ ]: non-standard residue; d: D form. The star is where a group is joined. Ileψ(thiazoline)Cys = CC[C@H](C)[C@H](N)C1=N[C@H](C(=O)*)CS1; dOrn = NCCC[C@@H](N)C(=O)O

`CCC(CC)COC(=O)[C@H](C)N[P@](=O)(OC[C@H]1O[C@@](C#N)(c2ccc3c(N)ncnn23)[C@H](O)[C@@H]1O)Oc1ccccc1` [Remdesivir, reference compound] yielded an EC50 with SARS-CoV-2 of 4.5 µM. In other words, the single-digit micromolar range. With `CC[C@H](C)[C@H](N)C1=N[C@H](C(=O)N[C@@H](CC(C)C)C(=O)N[C@H](CCC(=O)O)C(=O)N[C@H](C(=O)N[C@H]2CCCCNC(=O)[C@H](CC(N)=O)NC(=O)[C@@H](CC(=O)O)NC(=O)[C@H](Cc3cnc[nH]3)NC(=O)[C@@H](Cc3ccccc3)NC(=O)[C@H]([C@@H](C)CC)NC(=O)[C@@H](CCCN)NC2=O)[C@@H](C)CC)CS1` [bacitracin, reference compound] ({Ileψ(thiazoline)Cys}-L[dE]IK[dOrn]I[dF]H[dD]N; lactam 4-C), the wound healing result in test [1] is listed as “treated wounds were still open after one week”.

As a reminder, the EC50 is the concentration at which the effect is half-maximal.
